Results taken from US20250115569A1, “SULFONAMIDE COMPOUNDS FOR THE TREATMENT OF NEUROLOGICAL CONDITIONS” (LARIO THERAPEUTICS LIMITED, priority 2021, published 2025).

Tested on: Human Cav2.3 channel
Experiment: Human Cav2.3 channel calcium-influx assay
Assay type: cell-based
Details: Fluo8 fluorescence, HEK-293 T-Rex/Kir2.1/Cav2.3e cells, without pluronic acid
Procedure: HEK-293 T-Rex cells were transfected with pcDNA3.1-Kir2.1 to generate a stable cell line. After antibiotic selection, the obtained stable pools were analysed using FLIPR^TETRA (membrane potential assay), and a limiting dilution was performed and a HEK-293 T-Rex/Kir2.1 clone was selected. The clone was transfected with pcDNA3.1-Cav2.3e and pBud-Cav-β4-α2δ1 to generate a stable cell line where the Cav2.3e expression is inducible. After antibiotic selection, functional clone pool analysis and two successive limiting dilutions, the final clone underwent a qPCR analysis and a biophysical and pharmacological validation using patch-clamp.
A compound plate, containing 10 test compounds in eight-points dose response with n=4, was prepared. Test compounds dose response curves were prepared in automated fashion in 100% DMSO at CyBio Felix and starting from a stock solution in 100% DMSO; a defined volume was serially moved into destination wells pre-filled with the desired DMSO volume; stock solution concentration volumes were dependent on the final compounds concentrations to be tested and the final DMSO content used in the assay. For the assay test compounds dose response curves ranged from 30 μM and half log dilution with 0.3% final DMSO. In order to obtain the 8-points dose response curve all the concentrations were created by starting from a 10 mM DMSO stock solution and then moving 9.5 μL into a destination well pre-filled with 20.5 μL of 100% DMSO and repeating this step seven times. This initial step was done into 96 MTP plates, 10 compounds/plate. One 384 MTP was then reformatted to contain all the 10 compounds at 8 concentrations, quadruplicate data points. This so obtained 384 MTP compound plate served as source plate in a “mother to child” process with a CyBi®-Well dispenser in which 0.7 μL of compounds were moved into a destination plate pre-filled with 57.6 μL of Tyrode's buffer 0 mM K+, thus obtaining 4× concentrated compounds solution. In columns 1-2 and 23-24 the control wells were added. Both “source” compound plate and “destination” compound plate were barcoded and a relationship between the two plates was thus generated.
The day before the experiment, cells were detached by gentle wash with DPBS, followed by 5 min incubation at 37° C. with Trypsin solution. Detached cells were diluted with OptiMEM+Doxycycline at 0.2 μg/mL, counted and plated in Poly-D-Lysine coated black/clear bottom (15.000 c/well in 20 μl/well) by the use of a MATRIX WellMate dispenser. Plates were placed into a humidified incubator at 37° C. with 5% CO2 until the experimental day. 24 h after seeding 10 μL/well of 1.5× Fluo8 NW dye solution prepared in Tyrode's buffer 0 mM K* were added on top of the seeding medium. Cell plates were incubated for 40-60 min at RT in the dark. We then Injected off-line 10 μL/well of test compounds and controls 4× concentrated in Tyrode's Buffer 0 mM K+ with the CyBi®-Well instrument. Cell plates were incubated 3 minutes at RT. Finally, we injected 20 μL/well of 3× concentrated activator solution (K20-Na130-Ca2 buffer: 20 mM KCl, 130 mM NaCl, 2 mM CaCl2, 10 mM HEPES, 10 mM Glucose, final concentrations, prepared starting from “K0-Na150-Ca2” and “K150-Na0-Ca2” buffers) at FDSS7000EX instrument and read emitted fluorescence for 130 seconds.
Data analysis was performed with Genedata Screener® software and reported compounds activity as % effect in relation to the normalization standards. The Kinetic Response Value (KRV) is calculated as follows:
KRV=Maximal fluorescence recorded from second 5 to second 130 minus baseline fluorescence, computed as average from second 1 to second 2, of the kinetic trace. The KRV was normalized versus Neutral Controls and Inhibitor Controls in order to obtain the Activity[%] for each well. […] Therefore, the compound activity values were scaled (based on the two references) to a common range (two-point normalization). […]

Row | SMILES | Cav2.3 (pIC50)
1 | CCN(C(c1ccc(F)cc1)C(F)(F)F)S(=O)(=O)C1CCCOC1 (stereo not shown) [Example 56, N-ethyl-N-(2,2,2-trifluoro-1-(4-fluorophenyl)ethyl)tetrahydro-2H-pyran-3-sulfonamide] | 6.92
2 | CCN(C(c1ccc(F)cc1)C(F)(F)F)S(=O)(=O)c1cncnc1 (stereo not shown) [Example 57, N-ethyl-N-(2,2,2-trifluoro-1-(4-fluorophenyl)ethyl)pyrimidine-5-sulfonamide] | 6.96
3 | CN(C(c1ccc(F)cc1)C(F)(F)F)S(=O)(=O)c1cncnc1 (stereo not shown) [Example 58, N-methyl-N-(2,2,2-trifluoro-1-(4-fluorophenyl)ethyl)pyrimidine-5-sulfonamide] | 6.35
4 | CCN([C@@H](c1ccc(F)cc1)C(F)(F)F)S(=O)(=O)c1cncnc1 [Example 59, (S)—N-ethyl-N-(2,2,2-trifluoro-1-(4-fluorophenyl)ethyl)pyrimidine-5-sulfonamide] | 5.21
5 | CCN(C(c1ccc(F)cc1)C(F)(F)F)S(=O)(=O)c1cncnc1 [Example 60, (R)—N-ethyl-N-(2,2,2-trifluoro-1-(4-fluorophenyl)ethyl)pyrimidine-5-sulfonamide] | 7.14
6 | CCN(C(c1ccc(F)cc1)C(F)(F)F)S(=O)(=O)C1CCOCC1 (stereo not shown) [Example 61, N-ethyl-N-(2,2,2-trifluoro-1-(4-fluorophenyl)ethyl)tetrahydro-2H-pyran-4-sulfonamide] | 7.01
7 | CCN([C@@H](c1ccc(F)cc1)C(F)(F)F)S(=O)(=O)C1CCOCC1 [Example 62, (S)—N-ethyl-N-(2,2,2-trifluoro-1-(4-fluorophenyl)ethyl)tetrahydro-2H-pyran-4-sulfonamide] | 5.20
8 | CCN(C(c1cccc(OC)c1)C(F)(F)F)S(=O)(=O)c1cncc(C#N)c1 (stereo not shown) [Example 71, 5-Cyano-N-ethyl-N-(2,2,2-trifluoro-1-(3-methoxyphenyl)ethyl)pyridine-3-sulfonamide] | 6.80
9 | CCN([C@H](c1cccc(OC)c1)C(F)(F)F)S(=O)(=O)c1cncc(C#N)c1 [Example 72, (R)-5-Cyano-N-ethyl-N-(2,2,2-trifluoro-1-(3-methoxyphenyl)ethyl)pyridine-3-sulfonamide] | 6.20
10 | CCN([C@@H](c1cccc(OC)c1)C(F)(F)F)S(=O)(=O)c1cncc(C#N)c1 [Example 73, (S)-5-Cyano-N-ethyl-N-(2,2,2-trifluoro-1-(3-methoxyphenyl)ethyl)pyridine-3-sulfonamide] | 5.50
11 | Cc1ncc(S(=O)(=O)N(C)C(c2ccc(F)cc2)C(F)(F)F)cn1 (stereo not shown) [Example 74, N,2-dimethyl-N-(2,2,2-trifluoro-1-(4-fluorophenyl)ethyl)pyrimidine-5-sulfonamide] | 5.83
12 | CCN(C(c1ccc(F)cc1)C(F)(F)F)S(=O)(=O)c1cnc(C)nc1 (stereo not shown) [Example 75, N-ethyl-2-methyl-N-(2,2,2-trifluoro-1-(4-fluorophenyl)ethyl)pyrimidine-5-sulfonamide] | 5.94
13 | CCN([C@@H](c1ccc(F)cc1)C(F)(F)F)S(=O)(=O)c1cnc(C)nc1 [Example 76, (S)—N-ethyl-2-methyl-N-(2,2,2-trifluoro-1-(4-fluorophenyl)ethyl)pyrimidine-5-sulfonamide] | 5.31
14 | Cc1ncc(S(=O)(=O)N(C)[C@H](c2ccc(F)cc2)C(F)(F)F)cn1 [Example 78, (R)—N,2-dimethyl-N-(2,2,2-trifluoro-1-(4-fluorophenyl)ethyl)pyrimidine-5-sulfonamide] | 5.69
15 | Cc1ncc(S(=O)(=O)N(C)[C@@H](c2ccc(F)cc2)C(F)(F)F)cn1 [Example 79, (S)—N,2-dimethyl-N-(2,2,2-trifluoro-1-(4-fluorophenyl)ethyl)pyrimidine-5-sulfonamide] | 4.99
16 | CCN(C(c1cccc(C(F)(F)F)c1)C(F)(F)F)S(=O)(=O)c1cncc(C#N)c1 (stereo not shown) [Example 85, 5-Cyano-N-ethyl-N-(2,2,2-trifluoro-1-(3-(trifluoromethyl)phenyl)ethyl)pyridine-3-sulfonamide] | 6.34
